Test results reported in ChEMBL document CHEMBL5696442, “Discovery of type II inhibitors of TGFβ-activated kinase 1 (TAK1) and mitogen-activated protein kinase kinase kinase kinase 2 (MAP4K2)” (J Med Chem, 2015).

How the values were obtained:
[1] = molecular target: Tyrosine-protein kinase Fyn (Homo sapiens) (UniProt P06241); experiment: Inhibition of FYN ACT labeling site in human A-375 cells at 5 uM by KiNativ Profiling analysis relative to control; type: cell-based
[2] = molecular target: TRAF2 and NCK-interacting protein kinase (Homo sapiens) (UniProt Q9UKE5); experiment: Inhibition of ZC2/TNIK Lys1 labeling site in human A-375 cells at 0.05 uM by KiNativ Profiling analysis relative to control; type: cell-based
[3] = molecular target: Proto-oncogene tyrosine-protein kinase Src (Homo sapiens, UniProt P12931); experiment: Inhibition of SRC (unknown origin) Lys1 labeling site by KiNativ Profiling analysis
[4] = molecular target: T1, Scaffold protein ILK (Homo sapiens) (UniProt Q13418); experiment: Inhibition of ILK Lys1 labeling site in human A-375 cells at 0.5 uM by KiNativ Profiling analysis relative to control; type: cell-based
T1 sequence (whole entry): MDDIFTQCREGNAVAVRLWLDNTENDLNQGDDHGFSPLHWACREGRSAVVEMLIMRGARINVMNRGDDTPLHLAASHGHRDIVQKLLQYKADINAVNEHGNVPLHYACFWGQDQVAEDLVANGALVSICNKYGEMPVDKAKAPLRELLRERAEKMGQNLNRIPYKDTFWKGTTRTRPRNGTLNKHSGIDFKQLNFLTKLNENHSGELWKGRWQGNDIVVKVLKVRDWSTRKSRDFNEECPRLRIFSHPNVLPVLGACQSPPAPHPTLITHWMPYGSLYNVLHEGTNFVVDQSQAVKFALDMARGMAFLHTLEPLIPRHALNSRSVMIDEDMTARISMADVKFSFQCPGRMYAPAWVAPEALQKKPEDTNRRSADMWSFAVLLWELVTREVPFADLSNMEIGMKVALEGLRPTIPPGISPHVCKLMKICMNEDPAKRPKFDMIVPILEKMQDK

[5] = molecular target: T2, Mitogen-activated protein kinase kinase kinase 7 (Homo sapiens) (UniProt O43318); experiment: Inhibition of TAK1 Lys2 labeling site in human A-375 cells at 0.05 uM by KiNativ Profiling analysis relative to control; type: cell-based
T2 sequence (whole entry): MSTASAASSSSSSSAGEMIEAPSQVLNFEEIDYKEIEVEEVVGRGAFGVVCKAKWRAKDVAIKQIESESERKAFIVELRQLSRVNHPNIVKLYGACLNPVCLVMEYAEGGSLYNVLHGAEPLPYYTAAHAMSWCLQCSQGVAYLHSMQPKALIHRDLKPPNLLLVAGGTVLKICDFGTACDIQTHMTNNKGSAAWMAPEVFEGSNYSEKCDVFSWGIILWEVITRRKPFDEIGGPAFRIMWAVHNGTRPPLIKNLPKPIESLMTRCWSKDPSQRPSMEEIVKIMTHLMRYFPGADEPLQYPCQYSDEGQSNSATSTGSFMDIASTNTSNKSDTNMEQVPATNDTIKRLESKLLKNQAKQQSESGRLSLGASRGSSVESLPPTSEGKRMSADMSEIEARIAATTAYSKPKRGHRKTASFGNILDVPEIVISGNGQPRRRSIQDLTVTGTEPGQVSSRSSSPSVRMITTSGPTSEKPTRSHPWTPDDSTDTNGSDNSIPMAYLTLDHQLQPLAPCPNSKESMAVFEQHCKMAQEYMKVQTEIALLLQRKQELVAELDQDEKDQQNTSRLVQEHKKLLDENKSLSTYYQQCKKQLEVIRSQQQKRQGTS

[6] = molecular target: Activated CDC42 kinase 1 (Homo sapiens) (UniProt Q07912); experiment: Inhibition of ACK Lys1 labeling site in human A-375 cells at 0.05 uM by KiNativ Profiling analysis relative to control; type: cell-based
[7] = molecular target: Dual specificity mitogen-activated protein kinase kinase 1 (Homo sapiens) (UniProt Q02750); experiment: Inhibition of MAP2K1 Lys1 labeling site in human A-375 cells at 0.5 uM by KiNativ Profiling analysis relative to control; type: cell-based
[8] = molecular target: Tyrosine-protein kinase Fer (Homo sapiens, UniProt P16591); experiment: Inhibition of FER Lys1 labeling site harbouring TSVAVKTCKEDLPQELKin human A-375 cells at 0.05 uM by KiNativ Profiling analysis relative to control; type: cell-based
[9] = molecular target: Serine/threonine-protein kinase Nek7 (Homo sapiens) (UniProt Q8TDX7); experiment: Inhibition of NEK7 ACT labeling site in human A-375 cells at 5 uM by KiNativ Profiling analysis relative to control; type: cell-based
[10] = molecular target: Calcium/calmodulin-dependent protein kinase type II subunit delta (Homo sapiens) (UniProt Q13557); experiment: Inhibition of CaMK2d Lys1 labeling site in human A-375 cells at 0.05 uM by KiNativ Profiling analysis relative to control; type: cell-based
[11] = molecular target: T3, Inhibitor of nuclear factor kappa-B kinase subunit epsilon (Homo sapiens) (UniProt Q14164); experiment: Inhibition of IKKe Lys2 labeling site in human A-375 cells at 0.05 uM by KiNativ Profiling analysis relative to control; type: cell-based
T3 sequence (whole entry): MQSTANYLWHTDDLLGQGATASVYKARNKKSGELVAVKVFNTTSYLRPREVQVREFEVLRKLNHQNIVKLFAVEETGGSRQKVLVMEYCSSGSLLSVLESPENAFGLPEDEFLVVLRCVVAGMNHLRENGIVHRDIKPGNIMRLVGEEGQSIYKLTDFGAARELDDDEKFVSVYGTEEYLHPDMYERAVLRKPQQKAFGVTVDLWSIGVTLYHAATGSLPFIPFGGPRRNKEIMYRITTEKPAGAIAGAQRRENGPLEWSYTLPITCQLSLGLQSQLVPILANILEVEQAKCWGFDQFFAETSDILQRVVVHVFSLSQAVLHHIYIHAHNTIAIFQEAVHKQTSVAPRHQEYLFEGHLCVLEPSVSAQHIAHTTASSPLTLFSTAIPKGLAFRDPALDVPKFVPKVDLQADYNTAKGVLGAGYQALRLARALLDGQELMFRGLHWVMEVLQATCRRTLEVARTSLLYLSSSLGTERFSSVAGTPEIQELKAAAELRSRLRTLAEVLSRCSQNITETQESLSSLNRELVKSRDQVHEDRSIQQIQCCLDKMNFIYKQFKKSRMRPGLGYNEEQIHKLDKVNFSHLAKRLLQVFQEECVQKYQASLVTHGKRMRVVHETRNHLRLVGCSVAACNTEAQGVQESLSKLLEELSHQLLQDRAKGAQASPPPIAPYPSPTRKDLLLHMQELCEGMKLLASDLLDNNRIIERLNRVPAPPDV

[12] = molecular target: TRAF2 and NCK-interacting protein kinase (Homo sapiens) (UniProt Q9UKE5); experiment: Inhibition of ZC2 Lys2 labeling site in human Huh-7 cell lysate at 1 uM by KiNativ Profiling analysis relative to control; type: subcellular

TRAF2 and NCK-interacting protein kinase (Homo sapiens), sequence (Q9UKE5 whole entry, looked up): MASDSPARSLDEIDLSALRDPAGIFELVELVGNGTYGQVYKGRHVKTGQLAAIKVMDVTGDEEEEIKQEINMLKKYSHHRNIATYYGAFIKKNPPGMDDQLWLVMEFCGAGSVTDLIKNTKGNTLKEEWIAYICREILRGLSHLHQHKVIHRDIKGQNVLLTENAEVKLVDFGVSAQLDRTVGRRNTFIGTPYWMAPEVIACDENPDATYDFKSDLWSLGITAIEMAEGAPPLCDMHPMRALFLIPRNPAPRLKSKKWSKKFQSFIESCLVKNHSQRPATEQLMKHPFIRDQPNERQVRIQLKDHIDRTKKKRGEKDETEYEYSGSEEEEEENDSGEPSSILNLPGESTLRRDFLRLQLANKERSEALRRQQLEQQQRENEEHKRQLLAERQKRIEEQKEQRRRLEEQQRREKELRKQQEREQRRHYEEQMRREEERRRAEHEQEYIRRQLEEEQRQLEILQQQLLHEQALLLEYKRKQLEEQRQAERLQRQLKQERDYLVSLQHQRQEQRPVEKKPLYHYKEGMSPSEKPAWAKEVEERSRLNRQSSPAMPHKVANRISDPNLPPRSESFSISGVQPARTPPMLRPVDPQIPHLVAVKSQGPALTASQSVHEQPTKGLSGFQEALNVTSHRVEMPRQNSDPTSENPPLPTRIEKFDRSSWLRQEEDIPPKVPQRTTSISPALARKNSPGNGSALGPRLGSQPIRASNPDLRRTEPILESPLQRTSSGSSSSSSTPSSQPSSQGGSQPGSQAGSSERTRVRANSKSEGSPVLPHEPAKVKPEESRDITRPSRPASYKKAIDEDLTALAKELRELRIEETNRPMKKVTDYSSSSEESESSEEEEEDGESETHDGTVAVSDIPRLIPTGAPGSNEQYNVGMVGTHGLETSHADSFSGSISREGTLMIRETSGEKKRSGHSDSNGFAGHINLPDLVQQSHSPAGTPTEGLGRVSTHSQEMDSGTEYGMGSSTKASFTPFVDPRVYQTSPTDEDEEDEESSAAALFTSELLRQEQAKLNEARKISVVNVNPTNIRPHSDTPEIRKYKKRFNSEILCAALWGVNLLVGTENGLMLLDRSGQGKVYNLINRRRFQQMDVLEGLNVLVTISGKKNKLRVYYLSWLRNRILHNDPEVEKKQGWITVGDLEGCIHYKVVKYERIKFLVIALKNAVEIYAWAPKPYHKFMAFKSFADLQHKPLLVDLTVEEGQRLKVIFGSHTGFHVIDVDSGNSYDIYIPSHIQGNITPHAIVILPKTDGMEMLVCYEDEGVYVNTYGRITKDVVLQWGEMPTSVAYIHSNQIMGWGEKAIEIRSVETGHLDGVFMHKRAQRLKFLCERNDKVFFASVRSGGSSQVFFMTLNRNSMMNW
Calcium/calmodulin-dependent protein kinase type II subunit delta (Homo sapiens), sequence (Q13557 whole entry): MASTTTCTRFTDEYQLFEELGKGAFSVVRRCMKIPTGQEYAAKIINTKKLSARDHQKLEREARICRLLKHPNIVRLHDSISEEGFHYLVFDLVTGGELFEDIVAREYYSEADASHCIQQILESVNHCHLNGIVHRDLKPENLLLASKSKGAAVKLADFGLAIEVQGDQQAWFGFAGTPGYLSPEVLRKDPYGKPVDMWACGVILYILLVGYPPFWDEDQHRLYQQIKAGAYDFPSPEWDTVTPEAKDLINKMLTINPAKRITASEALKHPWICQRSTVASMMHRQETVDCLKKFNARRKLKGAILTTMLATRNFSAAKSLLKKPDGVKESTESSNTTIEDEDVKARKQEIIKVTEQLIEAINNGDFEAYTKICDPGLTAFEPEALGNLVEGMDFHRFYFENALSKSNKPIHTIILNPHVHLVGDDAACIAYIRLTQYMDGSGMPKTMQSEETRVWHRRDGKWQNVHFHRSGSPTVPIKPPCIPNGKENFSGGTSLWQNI
Tyrosine-protein kinase Fyn (Homo sapiens), sequence (P06241 2-537 limits assumed): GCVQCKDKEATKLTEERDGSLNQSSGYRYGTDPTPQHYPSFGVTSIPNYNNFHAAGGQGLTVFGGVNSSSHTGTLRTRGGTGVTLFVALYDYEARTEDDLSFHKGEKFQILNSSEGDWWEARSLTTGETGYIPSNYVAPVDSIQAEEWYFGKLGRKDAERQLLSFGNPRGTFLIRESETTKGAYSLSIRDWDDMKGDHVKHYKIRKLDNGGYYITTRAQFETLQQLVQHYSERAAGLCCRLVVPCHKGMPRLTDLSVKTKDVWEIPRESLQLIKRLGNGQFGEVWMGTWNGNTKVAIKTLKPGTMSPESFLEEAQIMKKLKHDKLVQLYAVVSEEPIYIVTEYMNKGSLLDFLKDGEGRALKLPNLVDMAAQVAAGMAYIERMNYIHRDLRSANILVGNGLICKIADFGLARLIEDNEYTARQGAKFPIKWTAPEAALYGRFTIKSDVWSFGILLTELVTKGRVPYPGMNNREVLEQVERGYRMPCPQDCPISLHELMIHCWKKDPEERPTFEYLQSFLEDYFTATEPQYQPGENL
Dual specificity mitogen-activated protein kinase kinase 1 (Homo sapiens), sequence (Q02750 whole entry): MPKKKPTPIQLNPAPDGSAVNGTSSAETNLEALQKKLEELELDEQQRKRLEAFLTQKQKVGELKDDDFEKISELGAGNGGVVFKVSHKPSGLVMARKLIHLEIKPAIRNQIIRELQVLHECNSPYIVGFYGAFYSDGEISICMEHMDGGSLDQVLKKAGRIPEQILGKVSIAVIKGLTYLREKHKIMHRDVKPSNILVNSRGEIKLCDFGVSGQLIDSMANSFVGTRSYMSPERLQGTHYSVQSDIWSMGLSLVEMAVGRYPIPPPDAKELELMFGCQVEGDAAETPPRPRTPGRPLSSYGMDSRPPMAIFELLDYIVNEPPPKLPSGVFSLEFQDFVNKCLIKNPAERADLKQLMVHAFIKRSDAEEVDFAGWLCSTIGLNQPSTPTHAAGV
Serine/threonine-protein kinase Nek7 (Homo sapiens), sequence (Q8TDX7 whole entry, looked up): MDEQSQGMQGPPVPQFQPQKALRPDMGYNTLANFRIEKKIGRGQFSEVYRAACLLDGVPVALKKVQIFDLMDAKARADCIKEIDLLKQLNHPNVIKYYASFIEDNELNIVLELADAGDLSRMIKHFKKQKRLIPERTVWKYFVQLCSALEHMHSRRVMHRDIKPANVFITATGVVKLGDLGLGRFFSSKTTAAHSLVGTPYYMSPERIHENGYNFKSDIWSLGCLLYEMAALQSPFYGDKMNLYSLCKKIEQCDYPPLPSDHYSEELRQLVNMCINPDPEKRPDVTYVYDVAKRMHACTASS
Tyrosine-protein kinase Fer, sequence (P16591 whole entry, looked up): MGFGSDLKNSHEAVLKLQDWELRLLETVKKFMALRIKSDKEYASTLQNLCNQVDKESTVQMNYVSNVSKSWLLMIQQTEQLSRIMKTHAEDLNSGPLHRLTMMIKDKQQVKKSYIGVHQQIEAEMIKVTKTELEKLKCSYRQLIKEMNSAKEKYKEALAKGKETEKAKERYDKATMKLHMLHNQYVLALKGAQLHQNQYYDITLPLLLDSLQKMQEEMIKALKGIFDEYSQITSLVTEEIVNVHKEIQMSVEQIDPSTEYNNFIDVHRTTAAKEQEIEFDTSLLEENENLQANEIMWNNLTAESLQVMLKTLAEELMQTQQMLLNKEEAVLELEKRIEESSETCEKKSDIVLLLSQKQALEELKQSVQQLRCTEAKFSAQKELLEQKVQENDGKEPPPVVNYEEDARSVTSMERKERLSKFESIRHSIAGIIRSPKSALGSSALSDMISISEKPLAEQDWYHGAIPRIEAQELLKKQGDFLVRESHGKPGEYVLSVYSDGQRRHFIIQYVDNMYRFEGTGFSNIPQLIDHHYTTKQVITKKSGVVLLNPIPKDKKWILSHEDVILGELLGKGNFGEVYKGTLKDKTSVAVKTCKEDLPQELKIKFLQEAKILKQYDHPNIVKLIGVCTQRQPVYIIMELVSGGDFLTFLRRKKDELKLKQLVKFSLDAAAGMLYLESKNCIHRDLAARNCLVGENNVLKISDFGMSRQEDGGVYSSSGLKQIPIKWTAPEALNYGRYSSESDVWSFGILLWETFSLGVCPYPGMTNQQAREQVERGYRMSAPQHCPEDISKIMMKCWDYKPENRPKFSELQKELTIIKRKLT
Proto-oncogene tyrosine-protein kinase Src, sequence (P12931 2-536 limits assumed): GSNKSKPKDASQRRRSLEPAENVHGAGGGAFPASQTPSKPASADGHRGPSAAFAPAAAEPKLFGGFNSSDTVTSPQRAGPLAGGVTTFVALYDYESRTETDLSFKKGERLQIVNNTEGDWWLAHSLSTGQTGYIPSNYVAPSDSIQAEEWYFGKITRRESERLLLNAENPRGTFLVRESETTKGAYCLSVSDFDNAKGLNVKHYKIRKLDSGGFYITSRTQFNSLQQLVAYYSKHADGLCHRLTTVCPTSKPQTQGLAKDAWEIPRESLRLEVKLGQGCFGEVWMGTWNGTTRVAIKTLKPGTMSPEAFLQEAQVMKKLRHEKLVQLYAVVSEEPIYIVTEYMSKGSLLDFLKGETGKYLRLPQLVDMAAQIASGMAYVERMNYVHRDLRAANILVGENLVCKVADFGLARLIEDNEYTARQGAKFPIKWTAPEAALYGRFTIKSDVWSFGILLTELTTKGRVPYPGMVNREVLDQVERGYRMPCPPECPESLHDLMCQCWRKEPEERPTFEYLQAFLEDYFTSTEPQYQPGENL

Row | SMILES | inhibition [1] [%] | inhibition [2] [%] | IC50 [3] [nM] | inhibition [4] [%] | inhibition [5] [%] | inhibition [6] [%] | inhibition [7] [%] | inhibition [8] [%] | inhibition [9] [%] | inhibition [10] [%] | inhibition [11] [%] | inhibition [12] [%]
1 | CCN1CCN(Cc2ccc(NC(=O)c3ccc(C)c(Oc4ccnc5[nH]ccc45)c3)cc2C(F)(F)F)CC1 | 89.6 | 42.6 | 113 | 4.9 | 88.7 | 15.6 | -3.5 | 64.6 | -3.5 | 13.1 | 29.2 | 
2 | CNc1cc(Oc2cc(C(=O)Nc3cc(-n4cnc(C)c4)cc(C(F)(F)F)c3)ccc2C)ncn1 |  |  |  |  |  |  |  |  |  |  |  | 24.1
3 | CNc1cc(Oc2cc(C(=O)Nc3cc(N4CCN(C)CC4)cc(C(F)(F)F)c3)ccc2C)ncn1 |  |  |  |  |  |  |  |  |  |  |  | 2.7
4 | CCN1CCN(Cc2ccc(NC(=O)c3ccc(C)c(/C=C/c4cnc5[nH]ccc5c4OC)c3)cc2C(F)(F)F)CC1 | > 99 | 57.6 | 204 | -1.2 | 71.8 | 34.3 | 4.4 | 2.6 | -6.2 | 14 | 19.8 | 
